Activity calls are given as the source filed them. The rule behind the calls is not given here.

In one series the test system is NCI-H1944. Put plainly: Antiproliferative activity against BRM-dependent human NCI-H1944 cells assessed as growth inhibition incubated for 7 days by celltiter glo 2.0 assay. The following applies: NCI-H1944, 168 h, time 7 day. It is filed as functional.
The target in series [1] is T1, SWI/SNF-related matrix-associated actin-dependent regulator of chromatin subfamily A member 2 (Homo sapiens, UniProt P51531). The experiment in a line: Binding affinity to his-tagged BRM bromodomain (unknown origin) assessed as dissociation constant.
T1 sequence (P51531 whole entry): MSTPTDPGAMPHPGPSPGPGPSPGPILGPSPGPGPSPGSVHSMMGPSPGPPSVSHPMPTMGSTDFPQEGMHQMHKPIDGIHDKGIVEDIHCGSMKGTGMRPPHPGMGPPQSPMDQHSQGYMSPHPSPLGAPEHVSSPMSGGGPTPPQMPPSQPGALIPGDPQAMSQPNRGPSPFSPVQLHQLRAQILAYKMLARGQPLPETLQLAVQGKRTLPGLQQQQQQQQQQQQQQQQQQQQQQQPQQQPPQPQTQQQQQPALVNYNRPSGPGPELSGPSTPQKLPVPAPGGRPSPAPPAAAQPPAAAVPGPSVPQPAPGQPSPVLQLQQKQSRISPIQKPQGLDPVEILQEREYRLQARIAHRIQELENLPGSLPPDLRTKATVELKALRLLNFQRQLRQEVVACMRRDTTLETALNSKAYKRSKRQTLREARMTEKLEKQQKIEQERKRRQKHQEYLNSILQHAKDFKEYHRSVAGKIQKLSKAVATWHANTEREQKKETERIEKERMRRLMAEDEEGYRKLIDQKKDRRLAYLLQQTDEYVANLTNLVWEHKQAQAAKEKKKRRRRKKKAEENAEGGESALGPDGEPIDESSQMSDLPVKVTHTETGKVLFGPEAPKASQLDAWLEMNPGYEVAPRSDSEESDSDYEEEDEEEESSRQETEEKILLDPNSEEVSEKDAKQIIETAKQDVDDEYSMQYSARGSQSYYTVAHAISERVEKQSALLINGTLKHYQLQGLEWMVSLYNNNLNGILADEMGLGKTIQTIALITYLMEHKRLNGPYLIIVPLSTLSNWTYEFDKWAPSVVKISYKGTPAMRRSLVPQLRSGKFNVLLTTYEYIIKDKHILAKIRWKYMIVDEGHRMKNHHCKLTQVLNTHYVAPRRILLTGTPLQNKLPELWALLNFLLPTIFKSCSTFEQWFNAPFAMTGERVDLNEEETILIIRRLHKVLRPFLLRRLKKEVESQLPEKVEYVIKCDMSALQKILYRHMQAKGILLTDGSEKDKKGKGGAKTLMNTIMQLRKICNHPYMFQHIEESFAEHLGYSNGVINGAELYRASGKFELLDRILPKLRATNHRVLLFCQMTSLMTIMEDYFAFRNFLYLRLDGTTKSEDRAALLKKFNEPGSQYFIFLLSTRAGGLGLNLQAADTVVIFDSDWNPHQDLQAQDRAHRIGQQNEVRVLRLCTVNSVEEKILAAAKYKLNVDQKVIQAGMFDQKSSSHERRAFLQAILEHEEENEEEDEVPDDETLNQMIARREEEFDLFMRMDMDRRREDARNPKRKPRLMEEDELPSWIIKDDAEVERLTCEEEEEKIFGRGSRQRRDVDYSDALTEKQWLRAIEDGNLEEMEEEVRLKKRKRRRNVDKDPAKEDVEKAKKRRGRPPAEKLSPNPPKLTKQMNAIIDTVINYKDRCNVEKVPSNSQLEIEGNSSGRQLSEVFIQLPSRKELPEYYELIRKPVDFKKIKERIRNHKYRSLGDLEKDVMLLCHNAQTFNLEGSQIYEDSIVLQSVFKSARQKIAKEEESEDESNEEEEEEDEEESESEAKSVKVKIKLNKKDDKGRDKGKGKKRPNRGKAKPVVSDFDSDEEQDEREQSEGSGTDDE
For series [2], the target named is von Hippel-Lindau disease tumor suppressor/SWI/SNF-related matrix-associated actin-dependent regulator of chromatin subfamily A member 4 (Homo sapiens, UniProt P51532+P40337). Put plainly: PROTAC activity at VHL/ BRG1 in human SW1573 cells assessed as induction of BRG1 degradation incubated for 22 hrs by Western blotting analysis. The series is classed as cell-based.

The subject of the next series is Calu-6. The experiment in a line: Antiproliferative activity against human Calu-6 cells assessed as growth inhibition incubated for 7 days by celltiter glo 2.0 assay. The series is classed as functional. To be noted: Calu-6, 168 h, time 7 day.
The species entered for series [3] is Homo sapiens. Put plainly: Ratio of binding affinity to VHL/BRM bromodomain (unknown origin) assessed as ternary complex association half life by SPR analysis to binding affinity to VHL/ BRG1 bromodomain (unknown origin) assessed as ternary complex association half life by SPR analysis.
A short description of series [4]: Metabolic stability in human liver microsome assessed as hepatic extraction ratio measured upto 60 mins by LC-MS/MS analysis. The series is classed as ADME. To be noted: liver microsomes.
Series [5] concerns the target T2, von Hippel-Lindau disease tumor suppressor/SWI/SNF-related matrix-associated actin-dependent regulator of chromatin subfamily A member 2 (Homo sapiens, UniProt P51531+P40337). The experiment in a line: PROTAC activity at VHL/BRM in human SW1573 cells assessed as induction of […] incubated for 22 hrs by Western blotting analysis. It is filed as cell-based.
Target sequence in this assay (P51531 whole entry): as above
Target sequence in this assay (P40337 whole entry): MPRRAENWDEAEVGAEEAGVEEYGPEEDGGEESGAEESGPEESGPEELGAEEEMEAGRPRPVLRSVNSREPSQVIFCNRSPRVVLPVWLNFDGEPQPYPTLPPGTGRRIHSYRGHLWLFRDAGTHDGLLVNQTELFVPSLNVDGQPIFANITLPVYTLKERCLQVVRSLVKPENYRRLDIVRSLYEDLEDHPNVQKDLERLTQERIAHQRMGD

A short description of series [6]: Plasma protein binding in mouse incubated for 15 mins by LC-MS/MS analysis. The series is classed as ADME, cell-free. The following applies: read-out: PPB (converted).
The species entered for series [7] is Homo sapiens. The experiment in a line: Ratio of DC50 for VHL/ BRG1 in human SW1573 cells to DC50 for VHL/BRM in human SW1573 cells. The series is classed as cell-based.
The target of series [8] is T2, von Hippel-Lindau disease tumor suppressor/SWI/SNF-related matrix-associated actin-dependent regulator of chromatin subfamily A member 2.
Target sequence in this assay (P40337 whole entry, looked up): as the sequence (P40337 whole entry) above
Target sequence in this assay (P51531 whole entry, looked up): as the sequence (P51531 whole entry) above
Series [9] can be described thus: Toxicity in CD-1 mouse xenografted with BRM-dependent human HCC2302 cells assessed as animal death at 10 to 30 mg/kg, ip measured at 9 to 13 days. The series is classed as organism-based. To be noted: in vivo, dose lower 10 mg/kg, time lower 9 day, dose upper 30 mg/kg, time upper 13 day.
The test system of series [10] is Mus musculus. Put plainly: In-vivo PROTAC activity at BRM/VHL in CD-1 mouse xenografted with Murine stromal cell line at 20 mg/kg, iv measured for 96 hrs. The series is classed as functional.
The target in series [11] is MAP kinase-activated protein kinase 3 (Homo sapiens) (UniProt Q16644). Put plainly: Induction of MAPKAPK3 degradation in human SW1573 cells at 100 nM incubated for 8 hrs by proteomics analysis. It is filed as cell-based.
Chain of MAP kinase-activated protein kinase 3 (Homo sapiens) (Q16644 whole entry, looked up): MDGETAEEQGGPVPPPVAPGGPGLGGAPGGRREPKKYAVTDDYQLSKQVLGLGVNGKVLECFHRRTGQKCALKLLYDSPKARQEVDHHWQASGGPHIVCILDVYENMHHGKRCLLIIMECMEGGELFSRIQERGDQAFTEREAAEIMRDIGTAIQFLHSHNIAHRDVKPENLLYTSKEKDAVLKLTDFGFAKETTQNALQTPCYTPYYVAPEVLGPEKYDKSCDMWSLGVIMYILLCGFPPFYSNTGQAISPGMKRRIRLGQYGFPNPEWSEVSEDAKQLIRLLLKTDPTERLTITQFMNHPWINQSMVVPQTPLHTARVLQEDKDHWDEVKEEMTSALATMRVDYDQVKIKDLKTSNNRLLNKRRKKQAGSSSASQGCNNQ
Series [12] relates to Mus musculus. Put plainly: In-vivo PROTAC activity at BRM/VHL in CD-1 mouse xenografted with human HCC2302 cells at 20 mg/kg, iv measured for 96 hrs. The series is classed as functional.
The target of series [13] is Urokinase-type plasminogen activator (Homo sapiens) (UniProt P00749). The experiment in a line: Induction of PLAU degradation in human SW1573 cells at 100 nM incubated for 8 hrs by proteomics analysis. It is filed as cell-based.
Series [14] can be described thus: Toxicity in CD-1 mouse xenografted with BRM-dependent human HCC2302 cells assessed as body weight loss at 10 to 30 mg/kg, ip administered once daily for 11 days. The following applies: in vivo, 264 h, dose 10-30 mg/kg, time 11 day. It is filed as organism-based.
Series [15] can be described thus: Toxicity in CD-1 mouse xenografted with BRM-dependent human HCC2302 cells assessed as animal survival at 10 mg/kg, ip measured at 15 days. The series is classed as organism-based. To be noted: in vivo, 360 h, time 15 day.
Series [16] is described as follows: Half life in mouse at 1 mg/kg, iv measured upto 60 mins by LC-MS/MS analysis. To be noted: in vivo. The series is classed as ADME, organism-based.
The nature of series [17]: Toxicity in CD-1 mouse xenografted with BRM-dependent human HCC2302 cells assessed as tolerability at 10 mg/kg, ip measured at 15 days. The series is classed as organism-based. To be noted: in vivo, 360 h, time 15 day.
For series [18], the target named is Protein polybromo-1 (Homo sapiens) (UniProt Q86U86). Put plainly: Induction of PBRM1 degradation in human SW1573 cells at 100 nM incubated for 8 hrs by proteomics analysis. The series is classed as cell-based.
Chain of Protein polybromo-1 (Homo sapiens) (Q86U86 whole entry): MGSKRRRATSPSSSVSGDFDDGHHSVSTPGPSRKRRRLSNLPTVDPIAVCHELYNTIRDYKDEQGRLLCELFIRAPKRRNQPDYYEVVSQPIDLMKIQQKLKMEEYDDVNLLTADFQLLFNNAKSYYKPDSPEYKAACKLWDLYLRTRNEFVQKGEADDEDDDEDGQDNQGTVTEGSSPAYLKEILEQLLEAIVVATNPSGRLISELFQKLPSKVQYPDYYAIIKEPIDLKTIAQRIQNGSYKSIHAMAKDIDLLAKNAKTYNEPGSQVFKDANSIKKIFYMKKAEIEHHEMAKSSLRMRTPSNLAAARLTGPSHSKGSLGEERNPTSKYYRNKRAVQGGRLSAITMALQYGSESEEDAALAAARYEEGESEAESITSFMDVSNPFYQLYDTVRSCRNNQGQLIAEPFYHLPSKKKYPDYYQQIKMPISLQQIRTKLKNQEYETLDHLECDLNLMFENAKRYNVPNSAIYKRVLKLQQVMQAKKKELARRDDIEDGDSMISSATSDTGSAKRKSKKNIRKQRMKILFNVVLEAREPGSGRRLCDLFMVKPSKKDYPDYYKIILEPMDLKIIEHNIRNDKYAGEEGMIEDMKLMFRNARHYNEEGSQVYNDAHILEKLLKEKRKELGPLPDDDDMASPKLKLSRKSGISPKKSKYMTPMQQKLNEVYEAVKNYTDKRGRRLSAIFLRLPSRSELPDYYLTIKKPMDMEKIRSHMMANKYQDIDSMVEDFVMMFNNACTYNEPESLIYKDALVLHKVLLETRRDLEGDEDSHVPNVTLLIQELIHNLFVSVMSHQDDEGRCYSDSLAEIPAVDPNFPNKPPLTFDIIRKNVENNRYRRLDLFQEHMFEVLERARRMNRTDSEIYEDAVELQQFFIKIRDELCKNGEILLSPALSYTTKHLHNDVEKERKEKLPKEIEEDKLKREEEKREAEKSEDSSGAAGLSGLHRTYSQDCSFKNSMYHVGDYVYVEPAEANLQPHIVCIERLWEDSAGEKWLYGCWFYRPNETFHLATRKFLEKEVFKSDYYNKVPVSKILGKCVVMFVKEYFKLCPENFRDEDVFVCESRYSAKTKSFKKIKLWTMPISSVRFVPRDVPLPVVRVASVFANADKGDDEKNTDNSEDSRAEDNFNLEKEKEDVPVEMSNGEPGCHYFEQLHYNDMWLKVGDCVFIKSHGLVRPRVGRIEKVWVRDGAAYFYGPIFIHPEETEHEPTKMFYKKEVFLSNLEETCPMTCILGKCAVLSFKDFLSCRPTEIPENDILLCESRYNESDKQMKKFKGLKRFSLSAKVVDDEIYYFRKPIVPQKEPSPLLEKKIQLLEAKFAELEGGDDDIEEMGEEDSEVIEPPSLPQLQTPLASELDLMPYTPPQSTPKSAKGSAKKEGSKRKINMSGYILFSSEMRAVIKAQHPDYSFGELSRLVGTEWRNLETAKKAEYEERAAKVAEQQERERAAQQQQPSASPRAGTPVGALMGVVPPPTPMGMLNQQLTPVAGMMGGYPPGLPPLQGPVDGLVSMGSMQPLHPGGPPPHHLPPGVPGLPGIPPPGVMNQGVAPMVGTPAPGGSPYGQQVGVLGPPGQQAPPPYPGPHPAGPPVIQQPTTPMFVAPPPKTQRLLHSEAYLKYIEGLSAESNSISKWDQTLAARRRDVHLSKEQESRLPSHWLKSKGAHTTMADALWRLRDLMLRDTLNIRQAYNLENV
A short description of series [19]: Drug concentration in mouse tumor at 20 mg/kg, ip measured for 96 hrs. The series is classed as ADME, organism-based, Neoplasm. To be noted: read-out: Ct.
Another series concerns HCC2302. The experiment in a line: Antitumor activity against human BRM-dependent HCC2302 cells xenografted in CD-1 mouse assessed as reduction in tumor growth at 10 to 30 mg/kg, ip administered once daily for 11 days. The following applies: dose 10-30 mg/kg, time 11.0 day. The series is classed as functional, organism-based.
Series [20] concerns SW1573. The experiment in a line: Induction of PALS1 degradation in human SW1573 cells at 100 nM incubated for 8 hrs by proteomics analysis. It is filed as cell-based.
The nature of series [21]: Drug concentration in mouse plasma measured for 24 hrs. It is filed as ADME, cell-free.
Series [22] is described as follows: Clearance in mouse at 1 mg/kg, iv measured upto 60 mins by LC-MS/MS analysis. The series is classed as ADME, organism-based. To be noted: in vivo, 1 h.
Series [23] concerns SW1573. The experiment in a line: Induction of PATJ degradation in human SW1573 cells at 100 nM incubated for 8 hrs by proteomics analysis. The series is classed as cell-based.
In series [24] the target is T1, SWI/SNF-related matrix-associated actin-dependent regulator of chromatin subfamily A member 2. Put plainly: Binding affinity to his-tagged BRM bromodomain (unknown origin) by alpha-LISA assay.

In the case of `Cc1ncsc1-c1ccc([C@H](C)NC(=O)[C@@H]2C[C@@H](O)CN2C(=O)[C@@H](c2cc(OCCN3CCC(O[C@H]4C[C@H](Oc5cc(N6C7CCC6CN(c6cc(-c8ccccc8)nnc6N)C7)ccn5)C4)CC3)no2)C(C)C)cc1`, the GI50 in the series with NCI-H1944 was more than 5000 nM. In addition, in series [1], the Kd came out at 10300 nM.

Regarding `Cc1ncsc1-c1ccc([C@H](C)NC(=O)[C@@H]2C[C@@H](O)CN2C(=O)[C@@H](c2cc(OCCN3CCN(CCOc4cc(N5C6CCC5CN(c5cc(-c7ccccc7O)nnc5N)C6)ccn4)CC3)no2)C(C)C)cc1`, the results for the DC50 in series [2] and in series [5] were 1.5 nM and 0.068 nM, respectively. Moreover, the concentration for 50% growth inhibition (GI50) in the series on Calu-6 was 7 nM; in the series with NCI-H1944 it was 0.17 nM. Further, the Ratio in the series listed under Homo sapiens [3] amounted to 0.33; in the series listed under Homo sapiens [7], 22. Besides, in [4], the hepatic extraction ratio at 1 h came to 0.72. Moreover, in series [6], the fraction unbound at 0.25 h is 0.016. Besides, the T1/2 in [8] is 6 s.

As for `Cc1ncsc1-c1ccc([C@H](C)NC(=O)[C@@H]2C[C@@H](O)CN2C(=O)[C@@H](c2cc(OCCN3CCC(O[C@H]4C[C@H](Oc5cc(N6C7CCC6CN(c6cc(-c8ccccc8O)nnc6N)C7)ccn5)C4)CC3)no2)C(C)C)cc1`, the concentration for 50% growth inhibition (GI50) is 24 nM with Calu-6 and 0.64 nM in the series on NCI-H1944. Also, the Activity result in series [9] was “Toxic”; in the series on Mus musculus [10] it was 4%; with Mus musculus [12], 64%; in series [14], “Toxic”; in series [15], “Non-Toxic”; in series [17] it was “Non-Toxic”. Moreover, the result (in [11]; in series [13]; in [18]; in the series on HCC2302; with SW1573 [20]; in the series with SW1573 [23]) was Active. For the same compound, the half-life in [16] was 2.6 h. The fraction unbound at 0.25 h in series [6] was 0.027. Moreover, the concentration at 96 h in [19] was found to be 158 ng/g. Moreover, the concentration at 24 h in [21] amounted to 26 nM. In series [22], this compound showed a clearance of 22 mL/min/kg.

Take `COc1cc(N2CCN(c3cc(-c4ccccc4O)nnc3N)CC2)ccn1`: the GI50 in the series with Calu-6 and in the series with NCI-H1944 was more than 300 nM each time. In series [24], the IC50 was 18 nM.

Take `Cc1ncsc1-c1ccc([C@H](C)NC(=O)[C@@H]2C[C@@H](O)CN2C(=O)[C@@H](c2cc(N3CCC(CN4CCC(O[C@H]5C[C@H](Oc6cc(N7C8CCC7CN(c7cc(-c9ccccc9)nnc7N)C8)ccn6)C5)CC4)CC3)no2)C(C)C)cc1`: the GI50 in the series on NCI-H1944 was more than 5000 nM. In series [1], the equilibrium dissociation constant (Kd) was 8540 nM.

These data come from ChEMBL document CHEMBL5537166, “PROTACs Targeting BRM (SMARCA2) Afford Selective In Vivo Degradation over BRG1 (SMARCA4) and Are Active in BRG1 Mutant Xenograft Tumor Models” (J Med Chem, 2024).
